Inhibition and percentage of aggregation data for three compounds are collected here from EP0846269B1, “A METHOD OF DETERMINING THE DEGREE OF AGGREGATION OF THE BETA A4 PEPTIDE” (Aventis Pharmaceuticals Inc., priority 1995, dated 1997).

Molecules are shown by their SMILES. Residues, ends and D or L forms follow the SMILES beside them.

In this experiment the target is β-amyloid (also known as βA4) peptide (Homo sapiens, UniProt P05067). As to the kind of experiment: Bradford dye (Coomassie Brilliant Blue G-250) assay of β-amyloid peptide aggregation, absorbance at 595 nm. Format: biochemical. To be noted: for inhibition at 500 µM: 500 µM compound; for inhibition at 1000 µM: 1 mM (or 1000 µM) compound. On the procedure:
β-amyloid (also known as βA4) peptide was dissolved in 100% dimethylsulfoxide (DMSO) at 10 mg/mL (or 2500 µM) concentration. The resultant solution was diluted to 1 mg/ml (or 250 µM) stock in Phosphate Buffered Saline (PBS), pH 7.4, just prior to setting up the assay and dispensed in individual sample wells of a Corning 96-well plate at 16µL per well (i.e. a final concentration of 25 µM). All treatments were done in triplicate.
In this example, the candidate compound was added to the test wells at three different concentrations (250µM, 500µM and 1mM). Total volume in each well was brought up to 160µL with PBS. For untreated control wells, no compound was added to the β-amyloid peptide, and the total volume was made to 160µL with PBS. The plates were sealed with parafilm and incubated at 37°C for 48 hours.
At the end of the incubation period, the plates were taken out and 25µL of Bio-Rad protein assay dye reagent (Bradford dye) was added to all the wells with samples. A standard curve was also set up at this time for estimation of fresh (also considered as unaggregared) peptide absorbance. The dye was mixed by pipeting and the plates quickly spun at 2500 rpm to remove bubbles.
The absorbance was read at 595 nm in a Dynatech MR5000 plate reader 15 minutes after adding the dye. The percent decrease in aggregation of β-amyloid due to the addition of candidate compound A41920t which is a 8-mer peptide of sequence Glutamine-Lysine-Leucine-Valine-Threonine-Threonine-Alanine-Glutamate ([…]) was calculated from the difference between untreated aggregated peptide and the treated aggregated peptide.
The procedure of Example 1 was repeated except that hydrogen peroxide (10µL of 30% stock) was added to the wells in a 96-well plate with 16µL of the 1 mg/mL β-amyloid stock. The final volume was then brought up to 160µL by adding 134µL of PBS to these wells. The plate was sealed and incubated at 37°C for 48 hours.
At the end of the incubation period, the plates were taken out and 25µL of Bio-Rad protein assay dye reagent (Bradford dye) was added to all the wells with samples as in Example 1. A standard curve was again used for estimation of fresh (also considered as unaggregated) peptide absorbance. The dye was mixed by pipeting and the plates quickly spun at 2500 rpm to remove bubbles.
The absorbance was read at 595nm in the Dynatech MR5000 plate reader 15 minutes after adding the dye. The amount of aggregation was estimated by subtracting background and taking the difference between the fresh and hydrogen peroxide treated β-amyloid readings. The difference was expressed as percent over fresh or unaggregated peptide.

Where [1] appears, read: 25 µM β-amyloid, PBS pH 7.4, 37°C, 48 hours, read-out: percent decrease in aggregation of β-amyloid.

β-amyloid (also known as βA4) peptide, sequence (P05067 672-713 limits assumed): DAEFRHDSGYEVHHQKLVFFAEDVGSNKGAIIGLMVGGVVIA

`CC(C)CC(NC(=O)C(CCCCN)NC(=O)C(N)CCC(N)=O)C(=O)NC(C(=O)NC(C(=O)NC(C(=O)NC(C)C(=O)NC(CCC(=O)O)C(=O)O)C(C)O)C(C)O)C(C)C` (stereo not drawn) [A41920t, Glutamine-Lysine-Leucine-Valine-Threonine-Threonine-Alanine-Glutamate (QKLVTTAE)] (H-QKLVTTAE-OH; configuration not given here): the inhibition at 250 µM (250 µM compound, 25 µM β-amyloid, PBS pH 7.4, 37°C, 48 hours, read-out: percent decrease in aggregation of β-amyloid) is 48.1%. Under setting [1], the inhibition at 500 µM was found to be 52.4% and the inhibition at 1000 µM came out at 32.3%.

On to `OO` [hydrogen peroxide], for which the percentage of aggregation (10µL of 30% stock in 160µL, 37°C, after 48 hrs, percent over fresh or unaggregated peptide) amounted to 97.7%.

For `CCCn1cnc2c1c(=O)n(CCCCC(C)=O)c(=O)n2C` [propentofylline, 1-(5'-oxohexyl)-3-methyl-7-propyl-2,6-(1H,3H)-purinedione], under setting [1], the inhibition at 500 µM was determined as 29.7% and the inhibition at 1000 µM came to 37.4%.
